Assay results published in patent publication US20200270588A1, “GLUCOSYL TRANSFERASE POLYPEPTIDES AND METHODS OF USE” (Syngenta Participations AG, priority 2017, published 2020).
Values joined by “and” are separate entries in the source; they are usually repeats but may differ in a detail not shown here. Equal values may be shown once.

Target: T1, Zea mays bx8 glucosyl transferase (SEQ ID 2) (Zea mays, UniProt Q8W2B7)
T1 construct: His tag; made in house
T1 sequence (Q8W2B7 1-459): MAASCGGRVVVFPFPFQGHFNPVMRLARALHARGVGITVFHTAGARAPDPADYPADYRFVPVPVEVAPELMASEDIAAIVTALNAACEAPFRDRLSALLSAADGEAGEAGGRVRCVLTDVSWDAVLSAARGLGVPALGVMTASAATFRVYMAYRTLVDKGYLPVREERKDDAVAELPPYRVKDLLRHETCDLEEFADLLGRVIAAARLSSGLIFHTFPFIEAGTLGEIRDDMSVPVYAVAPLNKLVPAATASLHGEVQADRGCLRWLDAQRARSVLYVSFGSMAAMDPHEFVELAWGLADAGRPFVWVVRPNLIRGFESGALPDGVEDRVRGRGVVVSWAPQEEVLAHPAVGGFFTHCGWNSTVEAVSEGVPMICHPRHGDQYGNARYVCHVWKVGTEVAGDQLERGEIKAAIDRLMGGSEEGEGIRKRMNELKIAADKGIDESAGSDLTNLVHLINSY
Test: LC/MS glucosyl transferase assay (glucoside peak area), purified enzyme
Format: biochemical
Conditions: for integrated peak area of beta-glucoside product: LC/MS, about 60 min, ~15 pmol enzyme, relative quantification only
Protocol: In an alternative method for assaying the various enzymes, the test glucosyl transferase enzyme is reacted with substrates exactly as above except that the assay is stopped by adding an equal volume of acetonitrile. Alternatively 50 or 100 μl samples from assay reactions are added to 500 μl ethyl acetate to stop the reaction. In this case samples are then vortexed and 400 μl of the ethyl acetate partition removed, dried down, and resuspended in 100 μl 80:20 acetonitrile/water. The formation of product gluco side and/or disappearance of substrate test herbicide is then monitored directly by LC/MS. Samples are analyzed by LC-MS using an Agilent 1290 liquid chromatography system and Thermo Q-Exactive mass spectrometer. The chromatography is achieved on a Waters Acquity C18 BEH (50×2.1 mm) 1.7 μm particle size column, using a 6 minute gradient run of Water (0.2% formic acid) and Acetonitrile. The Q-Exactive is operated in positive ionisation electrospray mode, using Full scan-AIF mode, at 35,000 resolution, between 100-800 m/z. All analytes are identified from the full scan data to within at least 5 ppm accuracy of their predicted pseudo-molecular ion [M+H]^+ m/z value. In order to obtain quantitative data standard curves are run using herbicides and herbicide glucosides synthesized as standards. Where these synthetic glucosides were not available the LC/MS assay could only be used to provide relative data.
DNA sequences, optimized for E. coli codon usage, were cloned, expressed and the various proteins purified and assayed as described in the foregoing examples. Using the UDP assay (as described in examples 1, 3 and 6) the data obtained from the Zea mays bx8 w/t protein and its variants was noisy due to relatively high background rates in DMSO reagent blanks. The values reported in the table 15 were thus monitored by LC/MS as described in example 1.
DNA sequences, optimized for E. coli codon usage, are cloned, expressed and the various proteins purified and assayed as described in the foregoing examples. As in Example 4, a DNA sequence is designed and synthesized to express the N-terminally his tagged Zea mays bx8 (SEQ ID No: 2). However in this case the DNA sequence is modified to further include a peptide insertion “GIGVD”=SEQ ID No: 102 in place of D442 of SEQ ID No: 2 and as indicated in Table 2. The resultant modified sequence is cloned into the E. coli expression plasmid pET24a using 5′ NdeI and 3′ XhoI restriction sites, expressed, purified and assayed. […] In LC/MS assays run for 30 min and similar to those described in example 7 the integrated peak areas for glucoside product from herbicide V from the w/t Zea mays bx8 SEQ ID NO:2 was 1.5E6 units whereas the corresponding number for the equivalent protein containing the GIGVD peptide insert was 2.5E6 units. […]

| SMILES | integrated peak area of glucoside product (LC/MS assay run for 30 min, N-terminally his tagged) [units] | integrated peak area of beta-glucoside product |
| --- | --- | --- |
| CN1CC(O)N(c2cc(C(F)(F)F)ccn2)C1=O (stereo not shown) [Compound V] | 1.5E6 | 2.52E+06 and 2.97E+06 |
| CN1CC(O)N(c2cc(C(F)(F)F)c(Cl)cn2)C1=O (stereo not shown) [XI] | – | 1.90E+04 and 2.36E+04 and 1.84E+04 |
| CON1C(=O)N(c2cc(C(F)(F)F)ccn2)C(O)[C@@H]1C (stereo partly shown) [Compound VI] | – | 8.08E+06 and 7.57E+06 and 8.81E+06 and 7.78E+06 |
